Assays:
[1] = cited from earlier work
[2] = Storage stability of agent incorporated in porous partition member and dried; assay type: physicochemical
Protocol: ADP is unstable in aqueous solution having a useful life of only about 4 hours.
Epinephrine is sensitive to aspirin induced defects in platelets.
The concentration of ADP solution used for incorporation into the membrane was 50 mg/ml, and that of the epinephrine solution was 10 mg/ml.
A strip of membrane was spot-coated with 1 μL of ADP or epinephrine solution. Therefore, each membrane placed in the Test Cartridge contained 50 μg of ADP or 10 μg of epinephrine. The membrane was then spot-coated with 1 μL of fibrillar Type I collagen suspension from horse tendon available from Nycomed AG.
Spot-coating involved putting spots of liquid agent on a strip of membrane. After spot-coating, the membrane was placed in a forced air drying chamber for 25 minutes for drying of the ADP or epinephrine, and formation of a collagen film on the coated areas. Once dried, an aperture was punched in the center of the spot and a membrane disk was cut from the membrane strip.

SMILES: Nc1ncnc2c1ncn2[C@@H]1O[C@H](COP(=O)(O)OP(=O)(O)O)[C@@H](O)[C@H]1O [ADP, adenosine 5′-diphosphate]
- useful life in aqueous solution ([1]; aqueous solution): about 4 hours
- stable when incorporated in a porous partition member ([2]; incorporated in porous partition member, dried, stored at about 4° C. under hermetically sealed conditions): about one and one-half

SMILES: CNC[C@H](O)c1ccc(O)c(O)c1 [epinephrine]
- stability in solution ([1]; in solution): unstable
- stability when incorporated in a porous partition member and dried ([2]; incorporated in porous partition member and dried): good stability
